Laboratory results as given in patent US20250017888A1, “COMPOUNDS FOR TREATING DISEASES ASSOCIATED WITH HYALURONAN OVERPRODUCTION” (THE ROYAL VETERINARY COLLEGE, priority 2021, published 2025).

Assays:
Type in all cases: cell-based
[1] = tested on: fibroblasts; experiment: Alamar blue staining of fibroblasts; details: Fibroblast
Procedure: (§1) The hyaluronan synthase activity (Prehm, P. and Schumacher, U., Biochem. Pharmacol. 2004, 68, 1401-1410), the cytotoxicity of the drugs (O'Brien, J. et al., Eur. J. Biochem. 2000, 267, 5421-5426), proteoglycan synthesis rate, hyaluronan (Prehm, P. J. Rheumatol., 2005, 32, 690-696) and proteoglycan (Bjornsson, S. Anal. Biochem. 1993, 210, 282-291) were determined as described. The effect of the prenylflavonoids on the MRP5 export rate was measured with fluorescein diacetate as described (Schulz, T., Schumacher, U., and Prehm, P., J Biol. Chem., 2007, 282, 20999-21004). The determination of the IC50 values on the phosphodiesterase 5 was performed according to the instructions of BPS Bioscience. The culture of bovine chondrocytes in alginate beads and of explants of bovine cartilage was described previously (Deiters, B. and Prehm, P. Arthritis Res. Ther., 2008, 10, R8; Prehm, P. J. Rheumatol. 2005, 32, 690-696). Osteoarthritic reactions were induced in chondrocytes growing in alginate beads by incubation with medium containing 10 ng/ml of II-17 for 6 days, and in cartilage explants with 10 ng/ml of II-17 and 5 ng/ml of II-1α. The supernatants were withdrawn and stored at −20° C. for later analysis. The explants were weighed and extracted with 1 ml of 4 M guanidinium-HCl for 72 hours at 4° C. The proteoglycan concentrations were determined in the extracts.

[2] = tested on: bovine cartilage explants; experiment: Proteoglycan loss from interleukin activated bovine cartilage explants; details: Bos taurus; read-out: IC50 Inhibition of proteoglycan loss
Procedure: Cartilage explants were weighed (average wet weight: 20 mg) incubated in the absence and presence of IL-1 (2 ng/ml) and the inhibitors at various concentrations for 5 days. The tissues were extracted with 1.5 ml of a solution of 4 M guanidinium hydrochloride, 0.1 M ε-aminohexanoid acid, 5 mM benzamidine, 10 mM N-ethylmaleinimide, 0.5 mM phenylmethylsulfonyl fluoride for 3 days at 4° C. The solution was centrifuged for 5 min at 10.000 g and the proteoglycans were determined in the supernatant by the alcian blue method as described (Bjornsson, S., Anal. Biochem., 1993, 210, 282-291).
Bovine cartilage explants were incubated in the absence and presence of interleukin for stimulation of osteoarthritic reactions and the indicated concentrations of the xanthohumol-betaine (FIG. 6A), xanthohumol-prothiazole (FIG. 6B), quercetin-prothiazole (FIG. 6C), quercetin (FIG. 6D) and xanthohumol (FIG. 6E) for 5 days. The cartilage explants were weighed and the proteoglycan concentrations were determined in the cartilage explants (solid bars) and culture supernatants (open bars).

[3] = tested on: bovine cartilage slices; experiment: Collagen loss from cartilage explants (van Gieson staining); details: Il-1α, Il-1β and Il-17; 12.5 μM and 50 μM; 14 days
Procedure: Cartilage explants were incubated with and without a mixture of 10 ng/ml of II-1α, 10 ng/ml of II-1β and 25 ng/ml of II-17 for 14 days. The addition of the cytokines was repeated daily. The tissues were fixed with 3.7% paraformaldehyde for 24 hours, imbedded in paraffin and stained by the van Giesson method.
Cartilage explants were incubated with and without a mixture of 10 ng/ml of 11-17 and 5 ng/ml of II-1α for 14 days. The addition of the cytokines was repeated daily. The tissues were fixed with 3.7% paraformaldehyde for 24 hours, imbedded in paraffin and stained by the van Gieson method (van Gieson, 1. (1889) Laboratory notes of technical methods for the nervous system. New York Medical Journal 50, 57-60).
It is known that hyaluronan overproduction leads to collagen degradation from cartilage (Deiters, B. and Prehm, P., Arthritis Res. Ther., 2008, 10, R8; Prehm, P., J. Rheumatol., 2005, 32, 690-696). […] Therefore cartilage explants were incubated with a mixture of the osteoarthritis inducing […] II-1α, II-1β and II-17 with 12.5 μM and 50 μM of the prenylflavonoids for 14 days and collagen was stained by the van Giesson method.

[4] = tested on: chondrosarcoma cells (SW1353); experiment: Alamar blue staining of chondrosarcoma; details: Homo sapiens
Procedure: as §1
Chondrosarcoma cells (SW1353 from the American Type Culture Collection) were grown in Dulbecco's medium supplemented with streptomycin/penicillin (100 units of each/ml), 10% foetal calf serum or in serum free Quantum medium supplemented with streptomycin/penicillin (100 units of each/ml), kanamycin (100 units/ml).

[5] = tested on: chondrosarcoma cells; experiment: Uptake of flavonoids into chondrosarcoma cells by intracellular fluorescence
Procedure: Confluent monolayers of chondrosarcoma cells on 96 well microtiter plates were incubated with 100 μM solutions of flavonoids in serum-free Quantum medium. Changes in fluorescence were monitored from the bottom of the wells at excitation and emission wavelengths of 340 nm and 450 nm for xanthohumol and at 440 nm and 530 nm for quercetin, respectively.
Flavonoids are weakly fluorescent in aqueous buffer, but greatly enhance the fluorescence in the presence of proteins (Sengupta, B. and Sengupta, P. K., Biochem. Biophys. Res. Commun., 2002, 299, 400-403). This property was used to follow the uptake of quercetin and xanthohumol into chondrosarcoma cells.

[6] = tested on: hyaluronan export from chondrosarcoma cells; experiment: Inhibition of hyaluronan export / production in chondrosarcoma cells
Procedure: as §1
Chondrosarcoma cells were plated on a 96 well microtiter plate and in the presence of increasing flavonoid concentrations. After 2 days the concentration of hyaluronan was determined in the culture supernatant.

[7] = Alamar blue toxicity assay (FIG. 1); details: below concentrations of 100 μM
Procedure: as §1
The toxicity was determined by the Alamar blue assay.

uptake into chondrosarcoma cells (intracellular fluorescence) [5]: did not accumulate inside the cells
SMILES: COc1cc(O)c(CC=C(C)C)c(O)c1C(=O)/C=C/c1ccc(O)cc1 [Xanthohumol, reference compound]
IC50 [1]: 55 µM
IC50 [2]: 2600 nM
protection of cartilage from collagen loss [3]: effective at protecting the cartilage from collagen loss
IC50 [4]: 76 µM
IC50 [6]: 19 µM
toxicity in Alamar blue assay [7]: not toxic
